According to PubChem BioAssay AID1259407 (Chemical Carcinogenesis Research Information System (CCRIS), 2018):
Active and inactive are the calls of the source. The rule behind the calls is not given here.

Tested on: CCRIS mutagenicity, Ames/micronucleus/aberration tests
Assay: CCRIS mutagenicity studies
[1] = Test System: AMES SALMONELLA TYPHIMURIUM, Strain/Indicator: TA98, Metabolic Activation: NONE, Method: PREINCUBATION
[2] = Test System: AMES SALMONELLA TYPHIMURIUM, Strain/Indicator: TA98, Metabolic Activation: NONE, Method: STANDARD PLATE
[3] = Test System: AMES SALMONELLA TYPHIMURIUM, Strain/Indicator: TA100, Metabolic Activation: NONE, Method: PREINCUBATION
[4] = Test System: AMES SALMONELLA TYPHIMURIUM, Strain/Indicator: TA1535, Metabolic Activation: NONE, Method: STANDARD PLATE

SMILES: CCCOC(=O)c1cc(O)c(O)c(O)c1
- mutagenic call (End Point: IN VITRO CHROMOSOMAL ABERRATIONS, Test System: CHO CELLS, Metabolic Activation: RAT, LIVER, S-9, AROCLOR 1254): inactive; negative
- mutagenic call (Test System: AMES SALMONELLA TYPHIMURIUM, Strain/Indicator: TA97, Metabolic Activation: NONE, Method: PREINCUBATION): inactive; negative
- mutagenic call (Test System: AMES SALMONELLA TYPHIMURIUM, Strain/Indicator: TA97, Metabolic Activation: S-9, Method: PREINCUBATION): inactive; negative
- mutagenic call [1]: inactive; negative
- mutagenic call [2]: inactive; negative
- mutagenic call (Test System: AMES SALMONELLA TYPHIMURIUM, Strain/Indicator: TA98, Metabolic Activation: RAT LIVER S-9, Method: PREINCUBATION): inactive; negative
- mutagenic call (Test System: AMES SALMONELLA TYPHIMURIUM, Strain/Indicator: TA98, Metabolic Activation: RAT, LIVER, S-9, AROCLOR 1254, Method: STANDARD PLATE): inactive; negative
- mutagenic call [3]: inactive; negative
- mutagenic call (Test System: AMES SALMONELLA TYPHIMURIUM, Strain/Indicator: TA100, Metabolic Activation: NONE, Method: STANDARD PLATE): inactive; negative
- mutagenic call (Test System: AMES SALMONELLA TYPHIMURIUM, Strain/Indicator: TA100, Metabolic Activation: RAT LIVER S-9, Method: PREINCUBATION): inactive; negative
- mutagenic call (Test System: AMES SALMONELLA TYPHIMURIUM, Strain/Indicator: TA100, Metabolic Activation: RAT, LIVER, S-9, AROCLOR 1254, Method: STANDARD PLATE): inactive; negative
- mutagenic call (Test System: AMES SALMONELLA TYPHIMURIUM, Strain/Indicator: TA102, Metabolic Activation: NONE, Method: PREINCUBATION): inactive; negative
- mutagenic call (Test System: AMES SALMONELLA TYPHIMURIUM, Strain/Indicator: TA102, Metabolic Activation: S-9, Method: PREINCUBATION): active; positive
- mutagenic call [4]: inactive; negative
- mutagenic call (Test System: AMES SALMONELLA TYPHIMURIUM, Strain/Indicator: TA1535, Metabolic Activation: RAT, LIVER, S-9, AROCLOR 1254, Method: STANDARD PLATE): inactive; negative
- mutagenic call (Test System: AMES SALMONELLA TYPHIMURIUM, Strain/Indicator: TA1537, Metabolic Activation: NONE, Method: STANDARD PLATE): inactive; negative
- mutagenic call (Test System: AMES SALMONELLA TYPHIMURIUM, Strain/Indicator: TA1537, Metabolic Activation: RAT, LIVER, S-9, AROCLOR 1254, Method: STANDARD PLATE): inactive; negative
- mutagenic call (Test System: AMES SALMONELLA TYPHIMURIUM, Strain/Indicator: TA1538, Metabolic Activation: NONE, Method: STANDARD PLATE): inactive; negative
- mutagenic call (Test System: AMES SALMONELLA TYPHIMURIUM, Strain/Indicator: TA1538, Metabolic Activation: RAT, LIVER, S-9, AROCLOR 1254, Method: STANDARD PLATE): inactive; negative
- mutagenic call (Test System: Ames Salmonella typhimurium, Strain/Indicator: TA102, Metabolic Activation: None, Method: Preincubation): inactive; negative
- mutagenic call (Test System: Ames Salmonella typhimurium, Strain/Indicator: TA102, Metabolic Activation: Rat, Liver, S-9, Aroclor 1254 in 0.154 M KCl, Method: Preincubation): inactive; negative
- mutagenic call (Test System: E. COLI, Strain/Indicator: WP2, Metabolic Activation: NONE, Method: STANDARD PLATE): inactive; negative
- mutagenic call (Test System: E. COLI, Strain/Indicator: WP2, Metabolic Activation: RAT, LIVER, S-9, AROCLOR 1254, Method: STANDARD PLATE): inactive; negative

SMILES: C=C1C(=O)[C@]23CCC4[C@](C)(CCC[C@@]4(C)C(=O)O)C2CC[C@@]1(O)C3 (stereo not given in full)
- mutagenic call (Test System: AMES SALMONELLA TYPHIMURIUM, Strain/Indicator: TM677, Metabolic Activation: NONE, Method: PREINCUBATION): active; positive

SMILES: [Cl][Ti]([Cl])[Cl]
- mutagenic call [1]: inactive; negative
- mutagenic call (Test System: AMES SALMONELLA TYPHIMURIUM, Strain/Indicator: TA98, Metabolic Activation: RAT LIVER S-9, PHENOBARBITAL AND BETA-NAPHTHOFLAVONE, Method: PREINCUBATION): inactive; negative
- mutagenic call [3]: inactive; negative
- mutagenic call (Test System: AMES SALMONELLA TYPHIMURIUM, Strain/Indicator: TA100, Metabolic Activation: RAT LIVER S-9, PHENOBARBITAL AND BETA-NAPHTHOFLAVONE, Method: PREINCUBATION): active; positive
- mutagenic call (Test System: AMES SALMONELLA TYPHIMURIUM, Strain/Indicator: TA1535, Metabolic Activation: NONE, Method: PREINCUBATION): inactive; negative
- mutagenic call (Test System: AMES SALMONELLA TYPHIMURIUM, Strain/Indicator: TA1535, Metabolic Activation: RAT LIVER S-9, PHENOBARBITAL AND BETA-NAPHTHOFLAVONE, Method: PREINCUBATION): inactive; negative
- mutagenic call (Test System: AMES SALMONELLA TYPHIMURIUM, Strain/Indicator: TA1537, Metabolic Activation: NONE, Method: PREINCUBATION): inactive; negative
- mutagenic call (Test System: AMES SALMONELLA TYPHIMURIUM, Strain/Indicator: TA1537, Metabolic Activation: RAT LIVER S-9, PHENOBARBITAL AND BETA-NAPHTHOFLAVONE, Method: PREINCUBATION): inactive; negative
- mutagenic call (Test System: AMES SALMONELLA TYPHIMURIUM, Strain/Indicator: TA1538, Metabolic Activation: NONE, Method: PREINCUBATION): inactive; negative
- mutagenic call (Test System: AMES SALMONELLA TYPHIMURIUM, Strain/Indicator: TA1538, Metabolic Activation: RAT LIVER S-9, PHENOBARBITAL AND BETA-NAPHTHOFLAVONE, Method: PREINCUBATION): inactive; negative
- mutagenic call (Test System: E.COLI, Strain/Indicator: WP2UVRA, Metabolic Activation: NONE, Method: PREINCUBATION): inactive; negative
- mutagenic call (Test System: E.COLI, Strain/Indicator: WP2UVRA, Metabolic Activation: RAT LIVER S-9, PHENOBARBITAL AND BETA-NAPHTHOFLAVONE, Method: PREINCUBATION): inactive; negative

SMILES: C=COc1ccccc1
- mutagenic call [2]: inactive; negative
- mutagenic call (Test System: AMES SALMONELLA TYPHIMURIUM, Strain/Indicator: TA98, Metabolic Activation: RAT LIVER MICROSOMES, Method: STANDARD PLATE): inactive; negative
- mutagenic call [4]: inactive; negative
- mutagenic call (Test System: AMES SALMONELLA TYPHIMURIUM, Strain/Indicator: TA1535, Metabolic Activation: RAT LIVER MICROSOMES, Method: STANDARD PLATE): active; positive
